# Assay results published in patent publication US11339419B2, “Scavenger protein(s) for improved preservation of analyte detection sensor(s) and method(s) of use thereof” (Siemens Healthcare Diagnostics Inc., priority 2017, dated 2022).
# Where “and” joins values, the source holds several entries; their conditions need not be identical. Equal values may be shown once.
# Assays:
# [1] = test system: sarcosine oxidase (BBI Solutions); assay: BBI Solutions Sarcosine Oxidase Enzyme Absorbance with BSA and Proclin 300; assay type: biochemical
# Excerpt: (§1) Absorbance measurements of the sarcosine oxidase enzyme(s) were taken via spectrophotometer for each aqueous solution (represented as columns 1-5 in Tables 1-4—column 6 is a blank), the absorbance being directly proportional to the enzyme activity being measured-which for Tables 1-4 is sarcosine oxidase enzyme activity. Accordingly, the higher the absorbance measurement, the higher the enzyme activity of sarcosine oxidase. […] In addition, the mean values, standard deviations, and coefficients of variation are also presented for the enzyme activity/absorbance of each aqueous solution. All measurements were taken at 37° C.
# [2] = test system: creatininase (BBI Solutions); assay: BBI Solutions Creatininase Enzyme Absorbance with BSA and Proclin 300; assay type: biochemical
# Excerpt: as §1, with “creatininase” for “sarcosine oxidase”, “5-8—column” for “1-4—column”, “5-8” for “1-4”, “creatininase.” for “sarcosine oxidase.”, “all” for “also”
# [3] = Day 0, BSA 5 mg/mL only, no Proclin 300, line of 0.7% Proclin 300
# [4] = Day 0, BSA 5 mg/mL only, no Proclin 300, line of 1.4% Proclin 300
# [5] = Day 0, BSA 25 mg/mL only, no Proclin 300, line of 0.7% Proclin 300
# [6] = Day 0, BSA 25 mg/mL only, no Proclin 300, line of 1.4% Proclin 300
# [7] = Day 0, BSA 50 mg/mL only, no Proclin 300, line of 0.7% Proclin 300
# [8] = Day 0, BSA 50 mg/mL only, no Proclin 300, line of 1.4% Proclin 300
# [9] = Day 4, BSA 5 mg/mL only, no Proclin 300, line of 0.7% Proclin 300
# [10] = Day 4, BSA 5 mg/mL only, no Proclin 300, line of 1.4% Proclin 300
# [11] = Day 4, BSA 25 mg/mL only, no Proclin 300, line of 0.7% Proclin 300
# [12] = Day 4, BSA 25 mg/mL only, no Proclin 300, line of 1.4% Proclin 300
# [13] = Day 4, BSA 50 mg/mL only, no Proclin 300, line of 0.7% Proclin 300
# [14] = Day 4, BSA 50 mg/mL only, no Proclin 300, line of 1.4% Proclin 300
# [15] = Day 14, BSA 5 mg/mL only, no Proclin 300, line of 0.7% Proclin 300
# [16] = Day 14, BSA 5 mg/mL only, no Proclin 300, line of 1.4% Proclin 300
# [17] = Day 14, BSA 25 mg/mL only, no Proclin 300, line of 0.7% Proclin 300
# [18] = Day 14, BSA 25 mg/mL only, no Proclin 300, line of 1.4% Proclin 300
# [19] = Day 14, BSA 50 mg/mL only, no Proclin 300, line of 0.7% Proclin 300
# [20] = Day 14, BSA 50 mg/mL only, no Proclin 300, line of 1.4% Proclin 300
# [21] = days 4 and 14, only BSA, no Proclin 300
# [22] = Day 0, BSA 5 mg/mL only, no Proclin 300, listed as of 0.7% Proclin 300
# [23] = Day 0, BSA 5 mg/mL only, no Proclin 300, listed as of 1.4% Proclin 300
# [24] = Day 0, BSA 25 mg/mL only, no Proclin 300, listed as of 0.7% Proclin 300
# [25] = Day 0, BSA 25 mg/mL only, no Proclin 300, listed as of 1.4% Proclin 300
# [26] = Day 0, BSA 50 mg/mL only, no Proclin 300, listed as of 0.7% Proclin 300
# [27] = Day 0, BSA 50 mg/mL only, no Proclin 300, listed as of 1.4% Proclin 300
# [28] = Day 4, BSA 5 mg/mL only, no Proclin 300, listed as of 0.7% Proclin 300
# [29] = Day 4, BSA 5 mg/mL only, no Proclin 300, listed as of 1.4% Proclin 300
# [30] = Day 4, BSA 25 mg/mL only, no Proclin 300, listed as of 0.7% Proclin 300
# [31] = Day 4, BSA 25 mg/mL only, no Proclin 300, listed as of 1.4% Proclin 300
# [32] = Day 4, BSA 50 mg/mL only, no Proclin 300, listed as of 0.7% Proclin 300
# [33] = Day 4, BSA 50 mg/mL only, no Proclin 300, listed as of 1.4% Proclin 300
# [34] = Day 14, BSA 5 mg/mL only, no Proclin 300, listed as of 0.7% Proclin 300
# [35] = Day 14, BSA 5 mg/mL only, no Proclin 300, listed as of 1.4% Proclin 300
# [36] = Day 14, BSA 25 mg/mL only, no Proclin 300, listed as of 0.7% Proclin 300
# [37] = Day 14, BSA 25 mg/mL only, no Proclin 300, listed as of 1.4% Proclin 300
# [38] = Day 14, BSA 50 mg/mL only, no Proclin 300, listed as of 0.7% Proclin 300
# [39] = Day 14, BSA 50 mg/mL only, no Proclin 300, listed as of 1.4% Proclin 300
substance,measurement,setting,value
bovine serum albumin [BSA],"Absorbance, solutions 7-11",[1]; [3],1.447 and 1.677 and 1.453 and 1.748
same,"MEAN absorbance, solutions 7-11",[1]; [3],1.51
same,"Absorbance, solutions 7-11",[1]; [4],1.464 and 1.437 and 1.453 and 1.458 and 1.444
same,"MEAN absorbance, solutions 7-11",[1]; [4],1.40
same,"Absorbance, solutions 7-11",[1]; [5],1.429 and 1.441 and 1.415 and 1.398 and 1.406
same,"MEAN absorbance, solutions 7-11",[1]; [5],1.37
same,"Absorbance, solutions 7-11",[1]; [6],1.39 and 1.396 and 1.375 and 1.392 and 1.376
same,"MEAN absorbance, solutions 7-11",[1]; [6],1.34
same,"Absorbance, solutions 7-11",[1]; [7],1.376 and 1.375 and 1.399 and 1.416 and 1.421
same,"MEAN absorbance, solutions 7-11",[1]; [7],1.35
same,"Absorbance, solutions 7-11",[1]; [8],1.402 and 1.394 and 1.401 and 1.397 and 1.396
same,"MEAN absorbance, solutions 7-11",[1]; [8],1.35
same,"Absorbance, solutions 7-11",[1]; [9],1.505 and 1.507 and 1.518 and 1.472 and 1.484
same,"MEAN absorbance, solutions 7-11",[1]; [9],1.45
same,"Absorbance, solutions 7-11",[1]; [10],1.446 and 1.471 and 1.449 and 1.46 and 1.484
same,"MEAN absorbance, solutions 7-11",[1]; [10],1.42
same,"Absorbance, solutions 7-11",[1]; [11],1.45 and 1.451 and 1.465 and 1.418 and 1.415
same,"MEAN absorbance, solutions 7-11",[1]; [11],1.40
same,"Absorbance, solutions 7-11",[1]; [12],1.416 and 1.421 and 1.436 and 1.431 and 1.426
same,"MEAN absorbance, solutions 7-11",[1]; [12],1.38
same,"Absorbance, solutions 7-11",[1]; [13],1.416 and 1.425 and 1.435 and 1.402 and 1.421
same,"MEAN absorbance, solutions 7-11",[1]; [13],1.38
same,"Absorbance, solutions 7-11",[1]; [14],1.38 and 1.397 and 1.399 and 1.403
same,"MEAN absorbance, solutions 7-11",[1]; [14],1.35
same,"Absorbance, solutions 7-11",[1]; [15],1.53 and 1.542 and 1.526 and 1.538 and 1.535
same,"MEAN absorbance, solutions 7-11",[1]; [15],1.49
same,"Absorbance, solutions 7-11",[1]; [16],1.527 and 1.53 and 1.526 and 1.566
same,"MEAN absorbance, solutions 7-11",[1]; [16],1.49
same,"Absorbance, solutions 7-11",[1]; [17],1.498 and 1.527 and 1.533 and 1.503 and 1.505
same,"MEAN absorbance, solutions 7-11",[1]; [17],1.47
same,"Absorbance, solutions 7-11",[1]; [18],1.499 and 1.497 and 1.533 and 1.539 and 1.525
same,"MEAN absorbance, solutions 7-11",[1]; [18],1.47
same,"Absorbance, solutions 7-11",[1]; [19],1.493 and 1.499 and 1.505 and 1.513 and 1.541
same,"MEAN absorbance, solutions 7-11",[1]; [19],1.46
same,"Absorbance, solutions 7-11",[1]; [20],1.467 and 1.491 and 1.482 and 1.534 and 1.529
same,"MEAN absorbance, solutions 7-11",[1]; [20],1.46
same,absorbance of the sarcosine oxidase enzyme compared to samples containing 0 mg/mL of BSA,"[1]; days 4 and 14, 5, 25 and 50 mg/mL BSA, with Proclin 300",increased absorbance
same,"sarcosine oxidase absorbance, solutions 7-11",[1]; [21],increased (or at least maintained)
same,"Absorbance, solutions 7-11",[2]; [22],0.658 and 0.656 and 0.654 and 0.693 and 0.67
same,"MEAN absorbance, solutions 7-11",[2]; [22],0.45
same,"Absorbance, solutions 7-11",[2]; [23],0.65 and 0.644 and 0.679 and 0.656 and 0.652
same,"MEAN absorbance, solutions 7-11",[2]; [23],0.44
same,"Absorbance, solutions 7-11",[2]; [24],0.669 and 0.654 and 0.645 and 0.676 and 0.685
same,"MEAN absorbance, solutions 7-11",[2]; [24],0.45
same,"Absorbance, solutions 7-11",[2]; [25],0.613 and 0.607 and 0.624 and 0.644 and 0.627
same,"MEAN absorbance, solutions 7-11",[2]; [25],0.41
same,"Absorbance, solutions 7-11",[2]; [26],0.682 and 0.675 and 0.716
same,"MEAN absorbance, solutions 7-11",[2]; [26],0.48
same,"Absorbance, solutions 7-11",[2]; [27],0.593 and 0.598 and 0.617 and 0.624 and 0.606
same,"MEAN absorbance, solutions 7-11",[2]; [27],0.39
same,"Absorbance, solutions 7-11",[2]; [28],0.886 and 0.907 and 0.938 and 0.922 and 0.893
same,"MEAN absorbance, solutions 7-11",[2]; [28],0.69
same,"Absorbance, solutions 7-11",[2]; [29],0.863 and 0.829 and 0.895 and 0.929 and 0.882
same,"MEAN absorbance, solutions 7-11",[2]; [29],0.65
same,"Absorbance, solutions 7-11",[2]; [30],0.783 and 0.769 and 0.787 and 0.807
same,"MEAN absorbance, solutions 7-11",[2]; [30],0.56
same,"Absorbance, solutions 7-11",[2]; [31],0.757 and 0.715 and 0.735 and 0.756 and 0.767
same,"MEAN absorbance, solutions 7-11",[2]; [31],0.52
same,"Absorbance, solutions 7-11",[2]; [32],0.671 and 0.651 and 0.656 and 0.677 and 0.657
same,"MEAN absorbance, solutions 7-11",[2]; [32],0.44
same,"Absorbance, solutions 7-11",[2]; [33],0.671 and 0.657 and 0.676 and 0.674 and 0.645
same,"MEAN absorbance, solutions 7-11",[2]; [33],0.44
same,"Absorbance, solutions 7-11",[2]; [34],0.993 and 0.992 and 0.972 and 1.009
same,"MEAN absorbance, solutions 7-11",[2]; [34],0.76
same,"Absorbance, solutions 7-11",[2]; [35],0.987 and 0.959 and 0.967 and 1.007 and 0.986
same,"MEAN absorbance, solutions 7-11",[2]; [35],0.75
same,"Absorbance, solutions 7-11",[2]; [36],0.841 and 0.843 and 0.815 and 0.846 and 0.808
same,"MEAN absorbance, solutions 7-11",[2]; [36],0.60
same,"Absorbance, solutions 7-11",[2]; [37],0.825 and 0.799 and 0.805 and 0.829 and 0.817
same,"MEAN absorbance, solutions 7-11",[2]; [37],0.59
same,"Absorbance, solutions 7-11",[2]; [38],0.672 and 0.653 and 0.659 and 0.682 and 0.685
same,"MEAN absorbance, solutions 7-11",[2]; [38],0.44
same,"Absorbance, solutions 7-11",[2]; [39],0.652 and 0.643 and 0.64 and 0.67 and 0.655
same,"MEAN absorbance, solutions 7-11",[2]; [39],0.42
same,absorbance of the creatininase enzyme compared to samples containing 0 mg/mL of BSA,"[2]; day 4, Proclin 300 0.7%, 5, 25 and 50 mg/mL BSA",mild increase
same,"creatininase absorbance, solutions 7-11",[2]; [21],increased (or at least maintained)
